From patent US4304778A, “4-Aminoquinazoline derivatives having fungicidal, anti-insect and acaricidal properties” (Sankyo Company Limited, priority 1978, dated 1981) come the findings set out here.

The subject of one series is Phytophthora infestans. Format: in vivo. As to conditions: tomato late blight; 500 ppm; after 5 days; average per leaf.
In another series the test system is cockroach larvae. As to conditions: 24 hours; 25° C.
For series [1], the system named is final instar larvae of the diamondback moth (Plutella xylostella). The series can be described thus: Repellent and emergence-inhibition effect on the final instar larvae of diamondback moths. Format: in vivo. As to conditions: 72 hours; for pest or weed control at 500 ppm: Plutella xylostella, read-out: Emergence-inhibition rate (%); for Extent of ingestion: radish leaves dipped in 500 ppm. The source says: (§1) In the following Examples, wettable powders prepared according to the procedures of Example 4 were used, each powder containing 50% by weight of the active compound of this invention.
Leaves of the Japanese radish (Raphanus sativus) were dipped for 30 seconds into a liquid containing 500 ppm of one of the compounds shown in Table 9. After air-drying the leaves, each leaf was placed into a plastic icecream cup (diameter 8 cm) and 15 final instar larvae of the diamondback moth (Plutella xylostella) were placed into each cup. Each test was conducted in duplicate and the results were averaged.

In a further series the test system is Sphaerotheca fuliginea. Nature of the series: Effect on powdery mildew in cucumbers. Format: in vivo. As to conditions: cucumber powdery mildew; 500 ppm; 10 days. The protocol: as §1
Cucumber seedlings (variety Sagamihanshiro), planted two per 12 cm diameter pot, were used as host plants at the stage when the first leaf was fully grown and open. Each test group of three pots was treated with one of the active compounds shown in Table 5 by spraying an aqueous suspension containing 500 ppm of the active compound onto the plants at the rate of 20 ml per 3 pots. After air-drying the plants, the host plants were inoculated with the microorganism Sphaerotheca fuliginea by brushing already infected cucumber leaves with a small brush and letting the microorganism fall onto the host plants. The inoculated plants were kept in a greenhouse at 24°-26° C. for 10 days. At the end of this time, the percentage diseased area was measured.

The next series deals with guppies. The series can be described thus: Toxicity to guppies. Format: in vivo. As to conditions: LC50 after 48 hours classified. The protocol:
In this example the toxicity of the compounds of the invention towards guppies was estimated and is compared with that of corresponding compounds as disclosed and claimed in our co-pending U.S. Application No. 910,117 filed May 30, 1978. The LC50 was determined after 48 hours and the toxicity to guppies was classified into the rankings (i), (ii) and (iii) according to the following classification scheme: […]

The structures appear in SMILES notation.

As to `CCC(C)c1ccccc1OCCN(C)c1ncnc2ccccc12` (stereo not shown) [compound 12, 4-{N-methyl-N-[2-(2-sec-butylphenoxy)ethyl]amino}quinazoline], in the series with Phytophthora infestans, the “Diseased area (%)” value is 15%. Besides, in the series on cockroach larvae, the “Mortality rate (%), 0.5mg test cpd/10 cockroaches/bottle” value was determined as 90% and the “Mortality rate (%), 1mg test cpd/10 cockroaches/bottle” value is 100%.

Regarding `Cc1cc(Cl)ccc1OCCN(Cc1ccccc1)c1ncnc2ccccc12` [compound 42, 4-{N-benzyl-N-[2-(4-chloro-2-methylphenoxy)ethyl]amino}quinazoline], in series [1], the pest or weed control at 500 ppm was 60% and the Extent of ingestion result is “± to +”.

On to `CCCCN(CCOc1ccccc1C(C)C)c1ncnc2ccccc12` [compound 28, 4{N-butyl-N-[2-(2-isopropylphenoxy)ethyl]amino}quinazoline], for which the “Diseased area (%)” value with Sphaerotheca fuliginea is given as 0%.

Turning to `COc1ccccc1OCCN(C)c1ncnc2ccccc12` [compound 16, 4-{N-[2-(2-methoxyphenoxy)ethyl]-N-methylamino}quinazoline], the “Diseased area (%)” value in the series with Phytophthora infestans is reported as 13%.

In the case of `Cc1ccccc1OCCN(c1ncnc2ccccc12)C(C)C` [compound 7, 4-{N-isopropyl-N-[2-(2-methylphenoxy)ethyl]amino}quinazoline], the Toxicity ranking entry in the series on guppies is on record as “ii (all fish dead at 10 ppm but alive at 0.5 ppm)”. Besides, in the series on Sphaerotheca fuliginea, the “Diseased area (%)” value is 0%.

Regarding `CCCCN(CCOc1cc(C(C)C)ccc1C)c1ncnc2ccccc12` [compound 49, 4-{N-butyl-N-[2-(5-isopropyl-2-methylphenoxy)ethyl]amino}quinazoline], the “Diseased area (%)” value with Sphaerotheca fuliginea is on record as 0%.

Turning to `CCCN(CCOc1ccc(C)cc1C)c1ncnc2ccccc12` [compound 33, 4-{N-[2-(2,4-dimethylphenoxy)ethyl]-N-propylamino}quinazoline], the “Diseased area (%)” value with Sphaerotheca fuliginea was 0%. In addition, in the series with cockroach larvae, the “Mortality rate (%), 0.5mg test cpd/10 cockroaches/bottle” value is listed as 90% and the “Mortality rate (%), 1mg test cpd/10 cockroaches/bottle” value stood at 100%.

In the case of `Cc1ccccc1OCCN(Cc1ccccc1)c1ncnc2ccccc12` [compound 3, 4-{N-benzyl-N-[2-(2-methylphenoxy)ethyl]amino}quinazoline], the Toxicity ranking entry with guppies was “i (all fish alive at 10 ppm)”. Besides, the “Diseased area (%)” value was 0% with Sphaerotheca fuliginea and 11% in the series on Phytophthora infestans.

With `CCCN(CCOc1ccccc1C(C)C)c1ncnc2ccccc12` [compound 24, 4-{N-[2-(2-isopropylphenoxy)ethyl]-N-propylamino}quinazoline], in the series on Sphaerotheca fuliginea, the “Diseased area (%)” value is on record as 0%.

For the compound `CCCN(CCOc1cc(C(C)C)ccc1C)c1ncnc2ccccc12` [compound 48, 4-{N-[2-(5-isopropyl-2-methylphenoxy)ethyl]-N-propylamino}quinazoline], the “Diseased area (%)” value in the series with Sphaerotheca fuliginea is on record as 0%.

As for `CN(CCOc1ccccc1)c1ncnc2ccccc12` [Compound No. 4, 4-[N-methyl-N-(2-phenoxyethyl)amino]quinazoline], in the series on cockroach larvae, the “Mortality rate (%), 0.5mg test cpd/10 cockroaches/bottle” value amounted to 85% and the “Mortality rate (%), 1mg test cpd/10 cockroaches/bottle” value turned out to be 100%.

As for `CCCN(CCOc1ccccc1C)c1ncnc2ccccc12` [compound 6, 4-{N-[2-(2-methylphenoxy)ethyl]-N-propylamino}quinazoline], the “Diseased area (%)” value in the series with Sphaerotheca fuliginea and in the series on Phytophthora infestans was 0% throughout.

For `CCN(CCOc1ccccc1C(C)C)c1ncnc2ccccc12` [compound 27, 4-{N-ethyl-N-[2-(2-isopropylphenoxy)ethyl]amino}quinazoline], the “Diseased area (%)” value in the series on Sphaerotheca fuliginea turned out to be 0%.

In the case of `CC(C)c1ccccc1OCCN(C)c1ncnc2ccccc12.O=C(O)C(=O)O` [compound 54, 4-{N-[2-(2-isopropylphenoxy)ethyl]-N-methylamino}quinazoline oxalate], in the series on Phytophthora infestans, the “Diseased area (%)” value is recorded as 0%.

Turning to `CC(C)c1ccccc1OCCN(c1ncnc2ccccc12)C(C)C` [compound 29, 4-{N-isopropyl-N-[2-(2-isopropylphenoxy)ethyl]amino}quinazoline], in series [1], the pest or weed control at 500 ppm was 60% and the Extent of ingestion result is on record as “± to +”.

Consider `Cc1ccc(OCCN(c2ncnc3ccccc23)C2CCCCC2)c(C)c1` [compound 37, 4-{N-cyclohexyl-N-[2-(2,4-dimethylphenoxy)ethyl]amino}quinazoline], for which, in series [1], the pest or weed control at 500 ppm stood at 60% and the Extent of ingestion result is “± to +”.

Take `CC(C)c1ccccc1OCCNc1ncnc2ccccc12` [Compound B, 4-{N-[2-(2-isopropylphenoxy)ethyl]amino}quinazoline, reference compound]: the Toxicity ranking result with guppies is “iii (all fish dead at 0.5 ppm)”.

In the case of `CC(C)c1ccccc1OCCN(c1ncnc2ccccc12)C1CCCCC1` [compound 46, 4-{N-cyclohexyl-N-[2-(2-isopropylphenoxy)ethyl]amino}quinazoline], in the series with Phytophthora infestans, the “Diseased area (%)” value amounted to 0%.

For `Cc1ccc(OCCN(Cc2ccccc2)c2ncnc3ccccc23)c(C)c1` [compound 36, 4-{N-benzyl-N-[2-(2,4-dimethylphenoxy)ethyl]amino}quinazoline], in the series on guppies, the Toxicity ranking result was “ii (all fish dead at 10 ppm but alive at 0.5 ppm)”. Besides, in the series with Sphaerotheca fuliginea, the “Diseased area (%)” value is recorded as 0%.

Take `Cc1ccc(OCCNc2ncnc3ccccc23)c(C)c1` [Compound C, 4-{N-[2-(2,4-dimethylphenoxy)ethyl]amino}quinazoline, reference compound]: the Toxicity ranking result in the series on guppies is “iii (all fish dead at 0.5 ppm)”.

For `CCN(CCOc1ccccc1)c1ncnc2ccccc12` [compound 5, 4-[N-ethyl-N-(2-phenoxyethyl)amino]quinazoline], the “Diseased area (%)” value in the series with Sphaerotheca fuliginea worked out at 6%.

With `Cc1ccccc1OCCNc1ncnc2ccccc12` [Compound A, 4-{N-[2-(2-methylphenoxy)ethyl]amino}quinazoline, reference compound], the Toxicity ranking entry in the series on guppies is given as “iii (all fish dead at 0.5 ppm)”.

For the compound `CN(CCOc1ccccc1Cl)c1ncnc2ccccc12` [compound 11, 4-{N-[2-(2-chlorophenoxy)ethyl]-N-methylamino}quinazolone], the “Diseased area (%)” value in the series on Phytophthora infestans is listed as 3%.

Turning to `Cc1cc(Cl)ccc1OCCN(c1ncnc2ccccc12)C(C)C` [compound 40, 4-{N-[2-(4-chloro-2-methylphenoxy)ethyl]-N-isopropylamino}quinazoline], in the series with guppies, the Toxicity ranking entry was “i (all fish alive at 10 ppm)”. For the same compound, the “Diseased area (%)” value in the series with Sphaerotheca fuliginea worked out at 0%.

Take `CCCCN(CCOc1ccc(C)cc1C)c1ncnc2ccccc12` [compound 35, 4-{N-butyl-N-[2-(2,4-dimethylphenoxy)ethyl]amino}quinazoline]: the Toxicity ranking entry with guppies is “ii (all fish dead at 10 ppm but alive at 0.5 ppm)”. For the same compound, the “Diseased area (%)” value with Sphaerotheca fuliginea came out at 0%.

With `CN(CCOc1cccc(Cl)c1)c1ncnc2ccccc12` [compound 23, 4-{N-[2-(3-chlorophenoxy)ethyl]-N-methylamino}quinazoline], in the series with cockroach larvae, the “Mortality rate (%), 0.5mg test cpd/10 cockroaches/bottle” value is recorded as 85% and the “Mortality rate (%), 1mg test cpd/10 cockroaches/bottle” value was 100%.

Take `CCCN(CCOc1ccc(Cl)cc1C)c1ncnc2ccccc12` [compound 39, 4-{N-[2-(4-chloro-2-methylphenoxy)ethyl]-N-propylamino}quinazoline]: the Toxicity ranking entry with guppies was “ii (all fish dead at 10 ppm but alive at 0.5 ppm)”. In addition, the “Diseased area (%)” value in the series with Sphaerotheca fuliginea is recorded as 0%. The “Diseased area (%)” value with Phytophthora infestans came to 9%. Also, in the series on cockroach larvae, the “Mortality rate (%), 0.5mg test cpd/10 cockroaches/bottle” value is listed as 85% and the “Mortality rate (%), 1mg test cpd/10 cockroaches/bottle” value turned out to be 100%.

`CC(C)=CCN(CCOc1ccccc1C(C)C)c1ncnc2ccccc12` [compound 53, 4-{N-[2-(2-isopropylphenoxy)ethyl]-N-(3-methyl-2-butenyl)amino}quinazoline]: the Toxicity ranking entry with guppies is given as “ii (all fish dead at 10 ppm but alive at 0.5 ppm)”. Further, the “Diseased area (%)” value in the series with Phytophthora infestans is 0%.

Turning to `Cc1cc(Cl)ccc1OCCNc1ncnc2ccccc12` [Compound D, 4-{N-[2-(4-chloro-2-methylphenoxy)ethyl]amino}quinazoline, reference compound], the Toxicity ranking entry with guppies is “iii (all fish dead at 0.5 ppm)”.

On to `C=CCN(CCOc1ccccc1C)c1ncnc2ccccc12` [Compound No. 8, 4-{N-allyl-N-[2-(2-methylphenoxy)ethyl]amino}quinazoline], for which the Toxicity ranking result in the series on guppies was “ii (all fish dead at 10 ppm but alive at 0.5 ppm)”. Further, the “Diseased area (%)” value in the series on Sphaerotheca fuliginea stood at 0%; in the series on Phytophthora infestans it was 5%.

As to `Cc1cccc(OCCN(C)c2ncnc3ccccc23)c1` [compound 20, 4-{N-methyl-N-[2-(3-methylphenoxy)ethyl]amino}quinazoline], in the series with cockroach larvae, the “Mortality rate (%), 0.5mg test cpd/10 cockroaches/bottle” value turned out to be 90% and the “Mortality rate (%), 1mg test cpd/10 cockroaches/bottle” value amounted to 100%.
